# Reference: patent US5665769A, “Pharmaceutical composition for preventing and treating retinal diseases” (Senju Pharmaceuticals Co., Ltd., priority 1993, dated 1997)
# Values joined by “and” are separate entries in the source; they are usually repeats but may differ in a detail not shown here. Equal entries are not always repeated.
# Tests used:
# retina (ERG in rats) = experiment: ERG in rats after light exposure for 20 hours (Experiment 2 (B-2), Method 2); format: in vivo; settings: 5.0% suspension, light 20 hours
# Description: FIG. 5 is a graph showing the a-wave latency of ERG in rats after light exposure for 20 hours in Experiment 2 (B-2)(Method 2). The abscissa indicates time (day) after light exposure and the ordinate indicates a-wave latency (msec).
# (B-2) Evaluation of ERG determination
# Rats were subjected to dark adaptation for 12 hours and irradiated with light for 20 successive hours under the same conditions as those of (Method-1). After subjecting them to dark adaptation for 2 hours, ERG was determined. A 5.0% 2-O-octadecylascorbic acid suspension or 5.0% gum arabic solution (control) was orally administered once a day (100 mg/kg/day) from 7 days before the light exposure and twice a day (200 mg/kg/day) only on the day of the light exposure.
# mice = experiment: Acute toxicity test in mice (Experiment 3); format: in vivo
# Description: Acute toxicity test of 2-O-octadecylascorbic acid
# 2-O-octadecylascorbic acid was tested for the acute toxicity test in mice. As a result, no mouse died even in oral administration of 1000 mg/kg. This compound has therefore low toxicity.
# retina (rat) = experiment: Retinal light damage in rats, histopathology and retinal thickness (Experiment 2 (B-1)); format: in vivo; parameters: key to Vacuolation of retinal pigment epithelium / Disarrangement or vacuolation of inner and outer segments of visual cells / Infiltration of macrophage / Pyknosis and nuclear disappearance in outer nuclear layer / Thinning of retinal entire layer: -: not observable; ±: slightly observable; +: observable; ++: remarkably observable; settings: for Vacuolation of retinal pigment epithelium / Disarrangement or vacuolation of inner and outer segments of visual cells / Infiltration of macrophage / Pyknosis and nuclear disappearance in outer nuclear layer / Thinning of retinal entire layer: one line per animal
# Description: (B) In vivo experiment by light exposure in rats
# (B-1) Evaluation by retinal pathological tissues and rhodopsin amount
# Rats were subjected to dark adaptation for 72 hours. Then the rats were irradiated continuously for 12 hours using a green fluorescent lamp (10 W, 490-580 nm), the illumination intensity of which was adjusted to 2000 to 2400 lux. A suspension of 1.5% or 5.0% 2-O-octadecylascorbic acid was orally administered three times a day (90, 300 mg/kg/day) on the day of light exposure, and once a day (30, 100 mg/kg/day) after that. To the control group was administered 5.0% gum arabic solution (control) according to the same schedule. After completion of the light exposure, the rats were reared in a dark room and sacrificed on the 5th day. The right eyes were marked with ink in the upper part and fixed with 2% paraformaldehyde and 2% glutaraldehyde solutions. Histopathological evaluation was made using a light microscope and the thickness of retinae (thickness of retinal entire layer and outer nuclear layer) was measured. The left eyes were stored under freezing conditions at -20° C. for rhodopsin determination after removal of the cornea, lens and vitreous body.
# [1] = tested on: bovine retinal homogenate; experiment: Ferrous chloride-induced peroxidation of bovine retinal homogenate in vitro, TBA value (Experiment 1 (A)); format: biochemical; settings: 10^-4 M
# Description: (A) In vitro experiment using a bovine retinal homogenate:
# Effects of 2-O-octadecylascorbic acid on the peroxidation induced by adding ferrous chloride to a bovine retinal homogenate were examined.
# (1) Retinae were removed from bovine eyeballs (1/2 eye). Physiological saline was added to the retinae to prepare bovine retinal homogenates.
# (2) Ferrous chloride (0.5 mM, dissolved in distilled water) was added to each of the retinal homogenates obtained in the above. Further, 2-O-octadecylascorbic acid and α-tocopherol were added to the resulting homogenates to final concentrations of the reaction mixtures of 10^-4 M, respectively. Further, distilled water was added to each of the homogenates to adjust a total volume to 1 ml. 2-O-octadecylascorbic acid and α-tocopherol were dissolved and diluted with ethanol. Thus, the final concentrations of ethanol in all of the reaction mixtures were adjusted to 1%. Then, the mixtures were subjected to reaction at 37° C. for 1 hour.
# (3) 0.35% thiobarbituric acid (hereinafter referred to as TBA) reagent (50% aqueous acetic acid solution)(1 ml) was added to the reaction mixtures or standard solutions of the retinal homogenates obtained in the above (2). The mixtures were subjected to reaction in boiling water at 100° C. for 1 hour. After water cooling, n-butanol (2 ml) was added, and the mixtures were shaken for 5 minutes and centrifuged at 3000 rpm for 10 minutes. Fluorescence intensities (excitation wave length: 515 nm, emission wave length: 553 nm) were determined for the n-butanol layer. Proteins were determined using Bio-Rad Protein Assay Kit (trade name).
# [2] = 1.5% suspension, mean ± S.D., n=5
# [3] = 1.5% suspension, Nos. 1-5 in order
# [4] = 5.0% suspension, mean ± S.D., n=3
# [5] = 5.0% suspension, Nos. 1-3 in order
compound,measurement,setting,value
CCCCCCCCCCCCCCCCCCOC1=C(O)[C@@H]([C@@H](O)CO)OC1=O [2-O-octadecylascorbic acid],delay of the a-wave latency,"retina (ERG in rats); oral 100 mg/kg/day from 7 days before, 200 mg/kg/day on day of light exposure",significantly inhibited the delay of the a-wave latency
same,amplitude of a-wave and b-wave,retina (ERG in rats); both groups,decreased in both groups
same,toxicity,"mice; acute toxicity, mice, oral",low toxicity
same,mortality,"mice; mouse, in vivo, po, 1000 mg/kg",no mouse died
same,examples (animals) with remarkably observed retinal lesions,retina (rat); 1.5% suspension,four of five examples
same,Vacuolation of retinal pigment epithelium,"retina (rat); 1.5% suspension (90 mg/kg/day oral on day of exposure, then 30), Nos. 1-5 in order",+
same,"Thickness of outer nuclear layer, lesion",retina (rat); [2],16.0 ± 7.2 µM
same,"Thickness of outer nuclear layer, near optic disk",retina (rat); [2],39.0 ± 8.8 µM
same,"Thickness of retinal entire layer, lesion",retina (rat); [2],88.5 ± 22.3 µM
same,"Thickness of retinal entire layer, near optic disk",retina (rat); [2],135.5 ± 27.9 µM
same,Disarrangement or vacuolation of inner and outer segments of visual cells,retina (rat); [3],++ (4×) and +
same,Infiltration of macrophage,retina (rat); [3],++ (4×) and -
same,Pyknosis and nuclear disappearance in outer nuclear layer,retina (rat); [3],++ (4×) and ±
same,Thinning of retinal entire layer,retina (rat); [3],++ (4×) and -
same,examples (animals) with remarkably observed retinal lesions,retina (rat); 5.0% suspension,one of three examples
same,Vacuolation of retinal pigment epithelium,"retina (rat); 5.0% suspension (300 mg/kg/day oral on day of exposure, then 100), Nos. 1-3 in order",- and + (2×)
same,thickness of the retinal entire layer near optic disk (in words),"retina (rat); 5.0% suspension, compared with control",significantly larger than that in the control group
same,severity of lesions,"retina (rat); 5.0% suspension, compared with control group",not so severe as those of the control group
same,"Thickness of outer nuclear layer, lesion",retina (rat); [4],19.2 ± 11.3 µM
same,"Thickness of outer nuclear layer, near optic disk",retina (rat); [4],48.3 ± 1.4 µM
same,"Thickness of retinal entire layer, lesion",retina (rat); [4],84.2 ± 16.3 µM
same,Disarrangement or vacuolation of inner and outer segments of visual cells,retina (rat); [5],± and + and ++
same,Infiltration of macrophage,retina (rat); [5],- (2×) and ++
same,Pyknosis and nuclear disappearance in outer nuclear layer,retina (rat); [5],± and + and ++
same,Thinning of retinal entire layer,retina (rat); [5],- and + and ++
same,thickness of the outer nuclear layer near optic disk (in words),"retina (rat); suspension administered groups, compared with control",tends to be larger than that in the control group
same,inhibitory effect on the peroxidation of the retinal homogenate,[1]; compared with α-tocopherol,more excellent inhibitory effect on the peroxidation of the retinal homogenate than that in the presence of α-tocopherol
same,Retina: TBA value,"[1]; 0.5 mM ferrous chloride, 37° C., 1 hour, mean ± S.D., n=3, p < 0.001 vs control",0.61 ± 0.04 nM malondialdehyde/mg protein
same,Inhibitory ratio,"[1]; ferrous chloride control = 0, blank = 100, 60 min",94.9%
